# In ChEMBL document CHEMBL1201862, “PubChem BioAssay data set” (2004):
#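 Interpolation was linear, between the two tested concentrations surrounding the appropriate level; five concentrations were tested over 48 hours in 96-well plates. Here, GI50 denotes the concentration required for 50% inhibition of growth.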 Calls of active or inactive are those of the source. Rule as the data show it: active = GI50 up to about 1.1 µM and inactive = higher.
# How the values were obtained:
# Test in all cases: NCI anticancer screen, dose series, 48 h
# 786-0 = system: 786-0
# CCRF-CEM = system: CCRF-CEM
# EKVX = system: EKVX
# HOP-92 = system: HOP-92
# Hs-578T = system: Hs-578T
# LOX IMVI = system: LOX IMVI
# M14 = system: M14
# MOLT-4 = system: MOLT-4
# NCI-H460 = system: NCI-H460
# NCI/ADR-RES = system: NCI/ADR-RES
# OVCAR-3 = system: OVCAR-3
# OVCAR-4 = system: OVCAR-4
# OVCAR-5 = system: OVCAR-5
# RPMI-8226 = system: RPMI-8226
# SF-268 = system: SF-268
# SK-OV-3 = system: SK-OV-3
# SNB-75 = system: SNB-75
# T47D = system: T47D
# TK-10 = system: TK-10
# U-251 = system: U-251
Compound,GI50 (786-0),GI50 (CCRF-CEM),GI50 (EKVX),GI50 (HOP-92),GI50 (Hs-578T),GI50 (LOX IMVI),GI50 (M14),GI50 (MOLT-4),GI50 (NCI-H460),GI50 (NCI/ADR-RES),GI50 (OVCAR-3),GI50 (OVCAR-4),GI50 (OVCAR-5),GI50 (RPMI-8226),GI50 (SF-268),GI50 (SK-OV-3),GI50 (SNB-75),GI50 (T47D),GI50 (TK-10),GI50 (U-251)
Cc1cccc(/C=N/NC(=S)N(C)CCc2ccccn2)n1,0.281 µM (active),0.0288 µM (active),0.391 µM (active),0.38 µM (active),> 33 µM (inactive),0.207 µM (active),0.329 µM (active),0.0647 µM (active),0.267 µM (active),0.269 µM (active),0.0853 µM (active),22.9 µM (inactive),4.93 µM (inactive),0.104 µM (active),0.278 µM (active),0.541 µM (active),0.483 µM (active),0.123 µM (active),15.2 µM (inactive),0.347 µM (active)
Nc1ccn(C2OC(COC(=O)C34CC5CC(CC(C5)C3)C4)C(O)C2O)c(=O)n1 (stereo not given),> 100 µM (inactive),0.101 µM (active),> 100 µM (inactive),> 100 µM (inactive),> 100 µM (inactive),7.01 µM (inactive),0.817 µM (active),0.0679 µM (active),0.392 µM (active),> 100 µM (inactive),> 100 µM (inactive),> 100 µM (inactive),> 100 µM (inactive),> 100 µM (inactive),> 50.5 µM (inactive),> 79.8 µM (inactive),> 100 µM (inactive),> 100 µM (inactive),> 100 µM (inactive),> 100 µM (inactive)
COc1c(C(=O)CC2c3c(cc4oc(C)cc(=O)c4c3OC)OC(=N)C2c2nc3ccccc3[nH]2)c(O)c(OC)c2occc12 (stereo not given),> 100 µM (inactive),> 100 µM (inactive),> 100 µM (inactive),> 100 µM (inactive),> 100 µM (inactive),> 100 µM (inactive),> 100 µM (inactive),> 100 µM (inactive),> 100 µM (inactive),> 100 µM (inactive),> 100 µM (inactive),> 100 µM (inactive),> 100 µM (inactive),> 100 µM (inactive),> 100 µM (inactive),> 100 µM (inactive),> 100 µM (inactive),> 100 µM (inactive),> 100 µM (inactive),> 100 µM (inactive)
O=C(NO)c1cccc(OCc2ccc(Br)cc2)c1,2.92 µM (inactive),1.91 µM (inactive),5.9 µM (inactive),7.8 µM (inactive),13.1 µM (inactive),2.11 µM (inactive),2.79 µM (inactive),2.03 µM (inactive),3.06 µM (inactive),2.93 µM (inactive),3.85 µM (inactive),5.24 µM (inactive),12.6 µM (inactive),2.74 µM (inactive),4.03 µM (inactive),5.21 µM (inactive),4.29 µM (inactive),3.06 µM (inactive),10.5 µM (inactive),4.63 µM (inactive)
Cc1ccc(Nc2n[nH]c(NS(=O)(=O)c3cc(C)c(Cl)cc3S)n2)cc1,> 100 µM (inactive),> 100 µM (inactive),> 100 µM (inactive),> 100 µM (inactive),> 100 µM (inactive),> 100 µM (inactive),> 100 µM (inactive),> 100 µM (inactive),> 100 µM (inactive),> 100 µM (inactive),> 100 µM (inactive),> 100 µM (inactive),> 100 µM (inactive),> 100 µM (inactive),> 100 µM (inactive),> 100 µM (inactive),> 100 µM (inactive),> 100 µM (inactive),> 100 µM (inactive),> 100 µM (inactive)
